The text below walks through data of PMC11678245, “The Molecular Basis of the Intrinsic and Acquired Resistance to Azole Antifungals in Aspergillus fumigatus” (Journal of Fungi, 2024).

Assay [1] relates to S. cerevisiae strain BRE (AfCyp51B-6×His, AfCprA2, AfErg6-FLAG). In words: MIC80 susceptibility, strain BRE. The assay is classed as cell-based, Saccharomyces cerevisiae. The following applies: Saccharomyces cerevisiae, strain BRE, ± SD, read-out: MIC80. How it is done: (§1) The susceptibilities of S. cerevisiae strains to antifungal drugs were determined as minimum growth inhibitory concentration (MIC) values in 200 μL SD pH 6.8 [24]. Serial 2-fold dilutions of 100 μL of azole or control drugs in SD pH 6.8 were prepared in a 96-well microtiter plate. A portion of a 2 mL SD pH 6.8 overnight culture of the test strain was inoculated into 3 mL fresh SD pH 6.8 and incubated for 4 to 6 h at 30 °C to generate logarithmic-phase cells. These cells were then diluted with fresh SD pH 6.8 to OD600nm = 0.01 (3 × 10^4 CFU), and 100 μL of this cell suspension was added to microtiter plate wells. Cell growth after 48 h incubation at 30 °C with shaking at 200 rpm was determined at 600 nm using a BioTek™ Synergy™ 2 multi-Mode microplate reader controlled using Gen5™ Data Analysis Software version 3.16.10 (BioTek Instruments, Winooski, VT, USA). MIC80 values (80% growth inhibition in the presence of the test drug compared with the untreated control) for each yeast construct were determined as technical triplicates repeated three times for three separate clones.

Assay [2] deals with S. cerevisiae strain B (AfCyp51B-6×His, native ScCyp51 retained). In words: MIC80 susceptibility, strain B. The assay is classed as cell-based. The following applies: Saccharomyces cerevisiae, Table 2, SD pH 6.8, 48 h, 30 °C. How it is done:
as §1

For assay [3], the system named is S. cerevisiae strain BR (AfCyp51B-6×His, AfCprA2-6×His). In words: MIC80 susceptibility, strain BR. In kind it is cell-based. The following applies: Saccharomyces cerevisiae; Table 2; strain BR; SD pH 6.8, 48 h, 30 °C; ± SD; read-out: MIC80. On the procedure:
as §1

Assay [4] relates to S. cerevisiae strain AR (AfCyp51A-6×His, AfCprA2-6×His). In words: MIC80 susceptibility, strain AR. In kind it is cell-based, Saccharomyces cerevisiae. On the procedure:
as §1

Assay [5] relates to S. cerevisiae strain A (AfCyp51A-6×His, native ScCyp51 retained). In words: MIC80 susceptibility, strain A. The assay is classed as cell-based. The following applies: Saccharomyces cerevisiae, Table 2, SD pH 6.8, 48 h, 30 °C. How it is done: as §1
Assay [6] deals with S. cerevisiae strain ARE I301T (AfCyp51A-6×His I301T, AfCprA2, AfErg6-FLAG). In words: MIC80 susceptibility, strain I301T. In kind it is cell-based, Saccharomyces cerevisiae. The following applies: Saccharomyces cerevisiae, ± SD, read-out: MIC80. How it is done:
as §1

Assay [7] deals with S. cerevisiae strain ADΔΔ (native ScCYP51). In words: MIC80 susceptibility, host strain ADΔΔ. The assay is classed as cell-based. The following applies: Saccharomyces cerevisiae, Table 2, SD pH 6.8, 48 h, 30 °C. How it is done:
as §1

In another assay the target is AfCYP51A-6×His (Aspergillus fumigatus, UniProt Q4WNT5). In words: Type II binding of azole drugs (difference spectra). The following applies: AfCYP51A. On the procedure: (§2) The concentration of AfCYP51A and AfCYP51B, purified using Ni-NTA affinity chromatography and used for the spectrophotometric type I and type II binding assays, was calculated using an extinction co-efficient of λ417nm = 117 mM^−1 cm^−1 applied to the absolute absorption spectrum of the preparations. In addition, the amount of “active” cytochrome P450 enzyme was determined using the carbon monoxide (CO) binding spectra of these preparations.
Sequence of AfCYP51A-6×His (Q4WNT5 whole entry): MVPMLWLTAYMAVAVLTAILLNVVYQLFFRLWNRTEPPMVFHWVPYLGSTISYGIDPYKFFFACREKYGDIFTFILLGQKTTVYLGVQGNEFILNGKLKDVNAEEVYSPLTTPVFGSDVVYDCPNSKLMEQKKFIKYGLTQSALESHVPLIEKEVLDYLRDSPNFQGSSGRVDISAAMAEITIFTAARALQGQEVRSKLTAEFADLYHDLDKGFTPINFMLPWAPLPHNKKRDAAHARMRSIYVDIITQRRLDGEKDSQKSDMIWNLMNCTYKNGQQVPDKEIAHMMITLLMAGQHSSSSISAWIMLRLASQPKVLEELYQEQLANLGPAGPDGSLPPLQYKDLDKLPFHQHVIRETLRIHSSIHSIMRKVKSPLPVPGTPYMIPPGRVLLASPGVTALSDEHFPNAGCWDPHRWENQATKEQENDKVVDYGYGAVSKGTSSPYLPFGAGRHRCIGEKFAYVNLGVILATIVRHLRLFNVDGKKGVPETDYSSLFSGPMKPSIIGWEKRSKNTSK
(§3) Type II binding difference spectra were obtained using 1 μM of affinity-purified CYP51 enzymes. VCZ, PCZ, VT-1161, DCZ, and MCF working solutions were prepared in DMSO, while FLC was prepared in Milli-Q water. Azole drugs were added to the sample cuvette, and corresponding amounts of DMSO or Milli-Q water were added to the reference cuvette. Drug binding curves were plotted using the difference spectrum peak and trough detected in the range of 410–425 nm. Dissociation constants (Kd) were determined by nonlinear regression (Levenberg–Marquardt algorithm) of the difference in absorbance between the peak and trough against the azole concentration using a rearrangement of the Morrison equation or the Hill equation [7]. GraphPad Prism 9.2.0 software was used to identify the best fit for the data.

The target in a further assay is T1, AfCYP51B-6×His (Aspergillus fumigatus, UniProt E9QY26).
T1 sequence (E9QY26 1-524): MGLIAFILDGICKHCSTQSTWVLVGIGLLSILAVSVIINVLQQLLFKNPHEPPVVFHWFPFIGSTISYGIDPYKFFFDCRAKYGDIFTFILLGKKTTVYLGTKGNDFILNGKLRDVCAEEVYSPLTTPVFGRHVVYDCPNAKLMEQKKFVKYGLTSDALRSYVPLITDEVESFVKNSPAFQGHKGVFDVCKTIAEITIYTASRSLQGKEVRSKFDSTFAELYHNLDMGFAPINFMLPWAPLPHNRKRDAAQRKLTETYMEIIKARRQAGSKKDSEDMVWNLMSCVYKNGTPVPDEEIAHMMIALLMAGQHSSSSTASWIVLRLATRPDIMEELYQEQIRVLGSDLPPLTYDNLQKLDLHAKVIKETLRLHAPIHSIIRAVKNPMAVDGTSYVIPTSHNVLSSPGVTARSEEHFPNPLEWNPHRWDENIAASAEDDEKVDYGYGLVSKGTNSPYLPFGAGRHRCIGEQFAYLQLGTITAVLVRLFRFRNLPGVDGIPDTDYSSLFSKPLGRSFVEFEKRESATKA
The description is as above. How it is done:
as §2, §3

In assay [8] the test system is S. cerevisiae strain ARE Y121F (AfCyp51A-6×His Y121F, AfCprA2, AfErg6-FLAG). In words: MIC80 susceptibility, strain Y121F. The following applies: Saccharomyces cerevisiae, ± SD, read-out: MIC80. In kind it is cell-based, Saccharomyces cerevisiae. How it is done:
as §1

Assay [9] deals with S. cerevisiae strain ADLS overexpressing ScCYP51-6×His. In words: MIC80 susceptibility, strain ADLS. The assay is classed as cell-based, Saccharomyces cerevisiae. The following applies: Saccharomyces cerevisiae; Table 2; strain ADLS; SD pH 6.8, 48 h, 30 °C; ± SD; read-out: MIC80. On the procedure:
as §1

For assay [10], the system named is S. cerevisiae strain ARE Y121F T289A (AfCyp51A-6×His Y121F T289A, AfCprA2, AfErg6-FLAG). In words: MIC80 susceptibility, strain Y121F T289A. The assay is classed as cell-based, Saccharomyces cerevisiae. The following applies: Saccharomyces cerevisiae, ± SD, read-out: MIC80. On the procedure: as §1
For assay [11], the system named is S. cerevisiae strain ARE (AfCyp51A-6×His, AfCprA2, AfErg6-FLAG). In words: MIC80 susceptibility, strain ARE. In kind it is cell-based, Saccharomyces cerevisiae. The following applies: Saccharomyces cerevisiae; Table 3; strain ARE; ± SD; read-out: MIC80. On the procedure:
as §1

Assay [12] deals with S. cerevisiae strain ARE T289A (AfCyp51A-6×His T289A, AfCprA2, AfErg6-FLAG). In words: MIC80 susceptibility, strain T289A. In kind it is cell-based, Saccharomyces cerevisiae. The following applies: for MIC80: Saccharomyces cerevisiae, ± SD, read-out: MIC80. On the procedure: as §1
[13] abbreviates: Table 2, SD pH 6.8, 48 h, 30 °C.
Where [14] appears, read: 48 h, pH 6.8, Table 2, strain I301T, SD pH 6.8, 48 h, 30 °C.
[15] abbreviates: type II binding, 1 μM enzyme, Hill equation.
The mark [16] stands for this setting: Table 2, strain Y121F, SD pH 6.8, 48 h, 30 °C.
Where [17] appears, read: Table 2, strain Y121F T289A, SD pH 6.8, 48 h, 30 °C.
[18] abbreviates: 48 h, pH 6.8, Table 2, strain T289A, SD pH 6.8, 48 h, 30 °C.

Several values for one entry are separate records, joined by “and”; a condition that tells them apart may be missing. Identical values can stand only once. Like-named read-outs stand apart in the source and are kept apart here. Numbered stars: 1 amine (or outer) side, 2 acyl side, 3 side chain; on linkers, the order of the positions; unused ones are H or OH. Bridge positions count the residues as written; N and C are the ends. Square brackets hold non-standard residues; d marks the D form. Peptide text beside a SMILES is read from it. * marks the point of attachment. hTyr(3S-OH,4S-OH,3'-OSO3H) = N[C@H](C(=O)O)[C@H](O)[C@@H](O)c1ccc(O)c(OS(=O)(=O)O)c1; Orn(4R-OH,5R-OH) = O=C([C@H](C[C@@H](O)[C@@H](O)N[*:3])N[*:1])[*:2]; Pro(3S-OH,4S-Me) = C[C@H]1CN[C@H](C(=O)O)[C@H]1O; X1 = CCCCCOc1ccc(-c2cc(-c3ccc(C(=O)*)cc3)no2)cc1; Gln(3R-OH) = NC(=O)C[C@@H](O)[C@H](N)C(=O)O; Hyp = O=C(O)[C@@H]1C[C@@H](O)CN1

By MIC80 is commonly meant an inhibitory concentration at the 80% level, which refers to growth in some studies and to a panel of isolates in others. As usually defined, the Kd is the equilibrium constant for the complex coming apart. For the compound `CC[C@@H]([C@H](C)O)n1ncn(-c2ccc(N3CCN(c4ccc(OC[C@@H]5CO[C@@](Cn6cncn6)(c6ccc(F)cc6F)C5)cc4)CC3)cc2)c1=O` [PCZ, posaconazole], the MIC80 in assay [1] (setting [13]) is 0.1 ± 0.01 µM; in [1] (Table 3) it was 0.06 ± 0.037 µM; in [2], 0.25 ± 0.03 µM; in [3], 0.17 ± 0.02 µM; in [4] (Saccharomyces cerevisiae, 48 h, pH 6.8), 0.19 ± 0.01 µM; in [4] (Table 2, strain AR, SD pH 6.8, 48 h, 30 °C, ± SD), 0.19 ± 0.02 µM. In addition, the MIC80 in assay [5] was 0.21 ± 0.01 µM; in assay [6] (setting [14]), 0.09 ± 0.02 µM; in assay [6] (Table 3, strain ARE I301T), 0.055 ± 0.001 µM; in assay [7] it was 0.1 ± 0.01 µM; in [8] (setting [16]), 0.06 ± 0.01 µM; in assay [8] (Table 3, strain ARE Y121F) it was 0.025 ± 0.003 µM. Further, the MIC80 in assay [9] was found to be 0.29 ± 0.04 µM; in assay [10] (setting [17]), 0.11 ± 0.01 µM; in [10] (Table 3, strain ARE Y121F T289A), 0.101 ± 0.017 µM; in assay [11], 0.05 ± 0.017 µM; in assay [12] (setting [18]), 0.06 µM; in assay [12] (Table 3, strain ARE T289A), 0.043 ± 0.019 µM. Also, at AfCYP51A-6×His (1 μM enzyme), the “λpeak (type II difference spectrum)” value is reported as 423 nm. The “λtrough (type II difference spectrum)” value at AfCYP51A-6×His (1 μM enzyme) was determined as 395 nm; on AfCYP51B-6×His (1 μM enzyme) it was 388 nm. Besides, the “ΔAmax (type II binding)” value is reported as 0.07 at AfCYP51A-6×His (1 μM enzyme, Hill equation) and 0.10 on AfCYP51B-6×His (1 μM enzyme, Hill equation). Also, the “Hill Number” value turned out to be 1.35 at AfCYP51A-6×His (type II binding) and 1.41 on AfCYP51B-6×His (type II binding). Also, the Kd on AfCYP51A-6×His (setting [15]) is 1.7 µM and 1.72 µM; on AfCYP51B-6×His (setting [15]) it was 2.1 µM and 2.15 µM. The “increase in susceptibility of strain T289A compared to strains ARE and ADΔΔ” value in [12] was 40%.

Take `CCCCCOc1ccc(-c2cc(-c3ccc(C(=O)N[C@H]4C[C@@H](O)[C@@H](O)NC(=O)[C@@H]5[C@@H](O)[C@@H](C)CN5C(=O)[C@H]([C@H](O)CC(N)=O)NC(=O)[C@H]([C@H](O)[C@@H](O)c5ccc(O)c(OS(=O)(=O)O)c5)NC(=O)[C@@H]5C[C@@H](O)CN5C(=O)[C@H]([C@@H](C)O)NC4=O)cc3)no2)cc1` [MCF, Micafungin] (X1-[Orn(4R-OH,5R-OH)]T[Hyp][hTyr(3S-OH,4S-OH,3'-OSO3H)][Gln(3R-OH)][Pro(3S-OH,4S-Me)]; lactam 1-C): the MIC80 in assay [1] (setting [13]) is 0.14 ± 0.01 µM; in [2], 0.18 ± 0.02 µM; in assay [3] it was 0.17 ± 0.03 µM; in assay [4] (Saccharomyces cerevisiae, Table 2, strain AR, SD pH 6.8, 48 h, 30 °C, ± SD, read-out: MIC80), 0.17 ± 0.03 µM; in assay [5], 0.19 ± 0.03 µM; in assay [6] (setting [14]), 0.28 ± 0.01 µM. Also, the MIC80 turned out to be 0.22 ± 0.02 µM in assay [7], 0.24 ± 0.02 µM in [8] (setting [16]), 0.21 ± 0.01 µM in [10] (setting [17]) and 0.27 µM in assay [12] (setting [18]).
